Activity calls are given as the source filed them.

Assay [1] addresses T1, Very long-chain specific acyl-CoA dehydrogenase, mitochondrial (Homo sapiens, UniProt P49748).
T1 sequence (P49748 whole entry): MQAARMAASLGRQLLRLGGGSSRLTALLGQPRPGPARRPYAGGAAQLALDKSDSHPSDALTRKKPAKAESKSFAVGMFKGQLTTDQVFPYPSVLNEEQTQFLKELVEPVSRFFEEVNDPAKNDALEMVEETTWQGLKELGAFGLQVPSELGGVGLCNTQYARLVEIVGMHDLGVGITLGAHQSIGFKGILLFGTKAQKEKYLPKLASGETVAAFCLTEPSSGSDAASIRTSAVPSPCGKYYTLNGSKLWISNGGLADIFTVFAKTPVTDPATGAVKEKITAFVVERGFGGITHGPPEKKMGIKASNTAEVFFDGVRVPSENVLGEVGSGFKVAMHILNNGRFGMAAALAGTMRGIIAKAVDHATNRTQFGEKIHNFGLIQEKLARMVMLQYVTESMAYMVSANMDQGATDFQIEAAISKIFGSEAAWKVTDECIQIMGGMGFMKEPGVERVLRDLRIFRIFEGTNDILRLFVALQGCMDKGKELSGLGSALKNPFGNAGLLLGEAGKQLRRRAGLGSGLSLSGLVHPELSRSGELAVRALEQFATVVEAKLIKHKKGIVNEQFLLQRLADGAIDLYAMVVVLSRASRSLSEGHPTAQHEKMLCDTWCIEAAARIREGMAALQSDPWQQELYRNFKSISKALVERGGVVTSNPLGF

The target of a further assay is LIM domain kinase 1 (Homo sapiens, UniProt P53667).
For assay [2], the target named is T2, Serine/threonine-protein kinase NLK (Homo sapiens, UniProt Q9UBE8).
T2 sequence (Q9UBE8 whole entry): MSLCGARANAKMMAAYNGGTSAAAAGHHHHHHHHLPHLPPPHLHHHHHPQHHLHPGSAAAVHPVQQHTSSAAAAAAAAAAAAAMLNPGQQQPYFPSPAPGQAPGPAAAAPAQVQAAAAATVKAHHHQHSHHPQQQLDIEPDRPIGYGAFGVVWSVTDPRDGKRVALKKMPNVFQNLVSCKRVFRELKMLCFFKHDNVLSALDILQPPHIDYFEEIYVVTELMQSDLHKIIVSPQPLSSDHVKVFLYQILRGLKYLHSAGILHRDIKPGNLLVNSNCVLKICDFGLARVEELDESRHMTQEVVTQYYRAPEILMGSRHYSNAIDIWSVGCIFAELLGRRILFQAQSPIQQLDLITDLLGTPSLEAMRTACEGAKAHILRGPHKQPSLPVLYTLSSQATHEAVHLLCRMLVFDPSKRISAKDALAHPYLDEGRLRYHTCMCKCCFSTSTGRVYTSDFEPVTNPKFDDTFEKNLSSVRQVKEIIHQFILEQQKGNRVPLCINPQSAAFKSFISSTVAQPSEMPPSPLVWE

Assay [3] addresses Ribosomal protein S6 kinase alpha-3 (Homo sapiens, UniProt P51812).
Assay [4] addresses T3, Serine/threonine-protein kinase TAO2 (Homo sapiens, UniProt Q9UL54).
T3 sequence (Q9UL54 whole entry): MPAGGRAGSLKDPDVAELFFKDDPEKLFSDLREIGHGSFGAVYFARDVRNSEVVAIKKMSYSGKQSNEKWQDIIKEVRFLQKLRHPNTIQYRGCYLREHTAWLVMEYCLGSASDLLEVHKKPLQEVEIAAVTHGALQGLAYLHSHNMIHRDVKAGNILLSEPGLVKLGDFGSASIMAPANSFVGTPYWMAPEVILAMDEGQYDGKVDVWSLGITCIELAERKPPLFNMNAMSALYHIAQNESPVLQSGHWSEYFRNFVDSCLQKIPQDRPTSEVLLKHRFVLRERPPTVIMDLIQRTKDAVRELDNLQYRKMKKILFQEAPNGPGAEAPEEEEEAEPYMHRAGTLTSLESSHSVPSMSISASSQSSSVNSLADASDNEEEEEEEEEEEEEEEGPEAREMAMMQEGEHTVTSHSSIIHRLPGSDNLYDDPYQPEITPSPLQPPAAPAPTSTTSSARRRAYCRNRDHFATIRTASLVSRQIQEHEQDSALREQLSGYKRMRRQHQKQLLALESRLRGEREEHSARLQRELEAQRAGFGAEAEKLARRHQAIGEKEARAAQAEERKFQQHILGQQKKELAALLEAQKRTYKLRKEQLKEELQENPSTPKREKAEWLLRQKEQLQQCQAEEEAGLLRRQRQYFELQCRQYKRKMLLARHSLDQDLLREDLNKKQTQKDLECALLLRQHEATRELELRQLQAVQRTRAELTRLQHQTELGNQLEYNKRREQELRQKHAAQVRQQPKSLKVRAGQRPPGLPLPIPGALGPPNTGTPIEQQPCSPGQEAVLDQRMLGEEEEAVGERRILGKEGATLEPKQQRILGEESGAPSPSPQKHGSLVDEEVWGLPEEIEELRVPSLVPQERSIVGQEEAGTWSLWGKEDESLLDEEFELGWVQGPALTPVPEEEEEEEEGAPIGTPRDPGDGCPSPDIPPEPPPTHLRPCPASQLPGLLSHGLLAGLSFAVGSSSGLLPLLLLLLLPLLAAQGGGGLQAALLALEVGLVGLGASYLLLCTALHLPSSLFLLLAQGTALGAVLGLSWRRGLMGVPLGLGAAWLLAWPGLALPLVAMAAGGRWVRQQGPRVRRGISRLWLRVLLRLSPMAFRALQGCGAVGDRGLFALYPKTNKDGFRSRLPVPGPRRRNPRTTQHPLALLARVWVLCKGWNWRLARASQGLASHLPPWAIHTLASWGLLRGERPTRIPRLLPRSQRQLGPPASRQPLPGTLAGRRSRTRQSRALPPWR

For assay [5], the target named is Elongation factor Tu, mitochondrial (Homo sapiens, UniProt P49411).
Further: in the data inactive means no Kd found up to 30 µM.

Ribosomal protein S6 kinase alpha-3, sequence (P51812 whole entry): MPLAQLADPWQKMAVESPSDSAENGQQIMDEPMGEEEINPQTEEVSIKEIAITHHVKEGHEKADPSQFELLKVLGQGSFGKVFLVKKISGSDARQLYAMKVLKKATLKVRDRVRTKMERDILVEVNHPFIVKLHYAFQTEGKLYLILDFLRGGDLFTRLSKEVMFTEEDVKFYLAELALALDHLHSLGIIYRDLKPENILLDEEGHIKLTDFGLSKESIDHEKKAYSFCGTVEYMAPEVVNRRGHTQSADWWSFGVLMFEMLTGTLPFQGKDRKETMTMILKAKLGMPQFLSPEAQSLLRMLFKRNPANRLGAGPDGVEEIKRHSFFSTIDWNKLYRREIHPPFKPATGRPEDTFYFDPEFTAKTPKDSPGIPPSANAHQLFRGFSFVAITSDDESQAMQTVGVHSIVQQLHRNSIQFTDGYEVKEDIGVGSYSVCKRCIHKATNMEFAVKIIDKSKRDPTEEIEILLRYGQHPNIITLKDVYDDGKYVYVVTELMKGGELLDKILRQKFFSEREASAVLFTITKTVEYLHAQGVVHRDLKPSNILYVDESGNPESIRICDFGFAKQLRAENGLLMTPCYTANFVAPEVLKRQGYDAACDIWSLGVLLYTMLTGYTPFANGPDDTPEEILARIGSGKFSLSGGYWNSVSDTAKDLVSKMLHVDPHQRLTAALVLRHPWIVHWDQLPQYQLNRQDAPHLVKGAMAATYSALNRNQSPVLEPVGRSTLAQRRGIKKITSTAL
LIM domain kinase 1, sequence (P53667 whole entry, the tested form may be a part): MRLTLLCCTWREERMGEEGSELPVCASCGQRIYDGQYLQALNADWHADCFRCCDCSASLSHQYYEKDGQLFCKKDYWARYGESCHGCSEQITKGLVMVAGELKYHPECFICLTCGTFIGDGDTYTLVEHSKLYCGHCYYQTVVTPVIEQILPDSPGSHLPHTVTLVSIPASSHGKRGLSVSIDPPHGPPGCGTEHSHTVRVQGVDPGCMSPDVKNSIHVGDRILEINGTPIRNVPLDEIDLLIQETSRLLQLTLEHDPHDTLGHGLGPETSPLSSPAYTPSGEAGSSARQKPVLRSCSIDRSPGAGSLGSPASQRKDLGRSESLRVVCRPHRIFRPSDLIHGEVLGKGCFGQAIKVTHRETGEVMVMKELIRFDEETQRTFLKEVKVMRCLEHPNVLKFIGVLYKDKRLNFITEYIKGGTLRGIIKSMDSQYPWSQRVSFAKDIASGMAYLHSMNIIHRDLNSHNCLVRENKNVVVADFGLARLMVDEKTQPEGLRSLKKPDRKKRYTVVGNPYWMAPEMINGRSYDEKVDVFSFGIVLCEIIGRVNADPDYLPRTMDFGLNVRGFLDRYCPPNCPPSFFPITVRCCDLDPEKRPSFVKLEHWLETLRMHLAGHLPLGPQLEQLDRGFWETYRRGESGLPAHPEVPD

By Kd is commonly meant the constant that tells how readily two partners part at equilibrium. `O=C(Nc1ccc(OC(F)(F)F)cc1)c1sccc1NCc1ccnc2ccccc12` [OSI-930]: the Kd (in assay [1]; at LIM domain kinase 1; in assay [2]; in assay [3]; in assay [4]; in assay [5]) was > 30 µM (inactive) throughout.

As for `C=CCN(/C=C1/C(=O)O[C@H](COC)[C@@]2(C)C1=C(O)C(=O)C1=C2[C@H](OC(C)=O)C[C@]2(C)C(=O)CC[C@@H]12)CC=C` [SONOLISIB], the Kd (in assay [1]; on LIM domain kinase 1; in assay [2]; in assay [3]; in assay [4]; in assay [5]) was > 30 µM (inactive) each time.

As for `COc1cccc2cc(-c3nc([C@H]4CC[C@H](C(=O)O)CC4)n4ncnc(N)c34)[nH]c12` [OSI-027], the Kd in assay [1] was > 30 µM (inactive); at LIM domain kinase 1 it was > 30 µM (inactive); in assay [2], 3.33 µM; in assay [3] it was > 30 µM (inactive); in assay [4] it was > 30 µM (inactive); in assay [5] it was > 30 µM (inactive).

`O=c1[nH]c([C@@H]2CCCN2)nc2c1oc1ccc(Cl)cc12`: the Kd (in assay [1]; at LIM domain kinase 1; in assay [2]; in assay [3]; in assay [4]; in assay [5]) was > 30 µM (inactive) each time.

For the compound `CN1CCN(c2nc(C3=C(c4c[nH]c5ccccc45)C(=O)NC3=O)c3ccccc3n2)CC1` [SOTRASTAURIN], the Kd (in assay [1]; on LIM domain kinase 1; in assay [2]; in assay [3]; in assay [4]; in assay [5]) was > 30 µM (inactive) each time.

In the case of `CCN1CCN(Cc2ccc(Nc3ncc(F)c(-c4cc(F)c5nc(C)n(C(C)C)c5c4)n3)nc2)CC1` [ABEMACICLIB], the Kd (in assay [1]; on LIM domain kinase 1; in assay [2]; in assay [3]; in assay [4]; in assay [5]) was > 30 µM (inactive) in each case.

With `COc1ccc(-c2ccc3ncc4c(c3c2)n(-c2ccc(N3CCNCC3)c(C(F)(F)F)c2)c(=O)n4C)cn1` [BGT-226 FREE BASE], the Kd (in assay [1]; at LIM domain kinase 1; in assay [2]; in assay [3]; in assay [4]; in assay [5]) was > 30 µM (inactive) throughout.

On to `CNC(=O)c1ccc(Nc2ncc(C(F)(F)F)c(NCc3nccnc3N(C)S(C)(=O)=O)n2)cc1` [DEFACTINIB], for which the Kd (in assay [1]; at LIM domain kinase 1; in assay [2]; in assay [3]; in assay [4]; in assay [5]) was > 30 µM (inactive) throughout.

Consider `Cc1c(Cn2c(C)nc3c(C(=O)O)cc(N4CCOCC4)cc32)cccc1C(F)(F)F` [GSK-2636771], for which the Kd (in assay [1]; at LIM domain kinase 1; in assay [2]; in assay [3]; in assay [4]; in assay [5]) was > 30 µM (inactive) each time.

As to `Cc1cc(C(=O)Nc2cc(Oc3ccc4nc(NC(=O)C5CC5)cn4n3)ccc2C)n(C)n1` [TAK-593], the Kd (in assay [1]; on LIM domain kinase 1; in assay [2]; in assay [3]; in assay [4]; in assay [5]) was > 30 µM (inactive) in each case.

On to `Cn1cc(-c2[nH]c3cc(NC(=O)[C@H](N)C4CCCCC4)cc4c3c2C=NNC4=O)cn1`, for which the Kd was > 30 µM (inactive) in assay [1]; 0.133 µM (active) on LIM domain kinase 1; > 30 µM (inactive) in assay [2]; > 30 µM (inactive) in assay [3]; > 30 µM (inactive) in assay [4]; > 30 µM (inactive) in assay [5].

The values are drawn from ChEMBL document CHEMBL3991601, “The target landscape of clinical kinase drugs” (Science, 2017).
